{
  "source": "PubChem BioAssay AID1963829",
  "about": "(Molecular Pharmacology Branch, DTP, NCI, 2024)",
  "data": [
    {"test_system": "935938-334-R-J1-PDC complex spheroid viability", "experiment": "Anticancer human tumor 935938-334-R-J1-PDC patient-derived small intestine adenocarcinoma cell line growth inhibition [POLQ]", "details": "second compound 0.0316 µM; first compound 3.16 µM; stronger effect = lower value", "in_short": "(§1)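 Complex spheroid viability model combining PDC tumour cells with endothelial (HUVEC) and MSC stromal cells. Novobiocin, ART-558 or RP6685 were tested singly and in combination with standard and investigational anticancer drugs. Each was titrated in half-log steps from near clinical Cmax, or from 10 microM where Cmax was unknown.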", "units": {"viability, T/C": "%"}, "values": [
      {"smiles": "O=c1[nH]cc(F)c(=O)[nH]1", "note": "+ Cc1cccc(N(C)C(=O)C2C(O)CCN2c2nc(C)cc(C(F)(F)F)c2C#N)c1", "viability, T/C": 74.2},
      {"smiles": "CC1COCCN1c1cc(C2(S(C)(=N)=O)CC2)nc(-c2ccnc3[nH]ccc23)n1", "note": "(configuration not stated) + Nc1ccc(C#CCN(C(=O)Cc2ncc(C(F)(F)F)cc2C(F)(F)F)c2ccc(F)cc2)nn1", "viability, T/C": 58.7},
      {"smiles": "CCCS(=O)(=O)Nc1ccc(F)c(C(=O)c2c[nH]c3ncc(-c4ccc(Cl)cc4)cc23)c1F", "note": "+ Cc1cccc(N(C)C(=O)C2C(O)CCN2c2nc(C)cc(C(F)(F)F)c2C#N)c1", "viability, T/C": 146},
      {"smiles": "COc1ccc([C@@H](O)c2cc(-c3ncnc4cc(N5CCOCC5)ccc34)c(F)cc2Cl)nn1", "note": "+ Cc1cccc(N(C)C(=O)C2C(O)CCN2c2nc(C)cc(C(F)(F)F)c2C#N)c1", "viability, T/C": 63.8},
      {"smiles": "CC(C)n1c(=O)n(C)c2cnc3cc(F)c(-c4ccc(OCCCN5CCCCC5)nc4)cc3c21", "note": "+ Cc1cccc(N(C)C(=O)C2C(O)CCN2c2nc(C)cc(C(F)(F)F)c2C#N)c1", "viability, T/C": 111}
    ]},
    {"test_system": "935938-334-R-J1-PDC complex spheroid viability", "experiment": "Anticancer human tumor 935938-334-R-J1-PDC cell line growth inhibition [POLQ];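 also: spheroids exposed to drugs for seven days before viability read; 100% = DMSO vehicle control wells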", "details": "second compound 0.0316 µM; first compound 10 µM; stronger effect = lower value", "in_short": "as §1", "units": {"viability, T/C": "%"}, "values": [
      {"smiles": "O=C(Nc1ccc(O)c(NS(=O)(=O)c2ccc(F)cc2)c1)c1ccc(-c2ccccc2)cc1", "note": "+ COC1C(OC(N)=O)C(O)C(Oc2ccc3c(O)c(NC(=O)c4ccc(O)c(CC=C(C)C)c4)c(=O)oc3c2C)OC1(C)C", "viability, T/C": 66.7},
      {"smiles": "O=c1[nH]cc(F)c(=O)[nH]1", "note": "+ Cc1cccc(N(C)C(=O)C2C(O)CCN2c2nc(C)cc(C(F)(F)F)c2C#N)c1", "viability, T/C": 56.1},
      {"smiles": "CC1COCCN1c1cc(C2(S(C)(=N)=O)CC2)nc(-c2ccnc3[nH]ccc23)n1", "note": "(configuration not stated) + Nc1ccc(C#CCN(C(=O)Cc2ncc(C(F)(F)F)cc2C(F)(F)F)c2ccc(F)cc2)nn1", "viability, T/C": 15.2},
      {"smiles": "CCCS(=O)(=O)Nc1ccc(F)c(C(=O)c2c[nH]c3ncc(-c4ccc(Cl)cc4)cc23)c1F", "note": "+ Cc1cccc(N(C)C(=O)C2C(O)CCN2c2nc(C)cc(C(F)(F)F)c2C#N)c1", "viability, T/C": 51},
      {"smiles": "COc1ccc([C@@H](O)c2cc(-c3ncnc4cc(N5CCOCC5)ccc34)c(F)cc2Cl)nn1", "note": "+ Cc1cccc(N(C)C(=O)C2C(O)CCN2c2nc(C)cc(C(F)(F)F)c2C#N)c1", "viability, T/C": 39.9},
      {"smiles": "CC(C)n1c(=O)n(C)c2cnc3cc(F)c(-c4ccc(OCCCN5CCCCC5)nc4)cc3c21", "note": "+ Cc1cccc(N(C)C(=O)C2C(O)CCN2c2nc(C)cc(C(F)(F)F)c2C#N)c1", "viability, T/C": 125}
    ]},
    {"test_system": "935938-334-R-J1-PDC complex spheroid viability", "experiment": "Anticancer human tumor 935938-334-R-J1-PDC cell line growth inhibition [POLQ];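 also: spheroids exposed to drugs for seven days before viability read; 100% = DMSO vehicle control wells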", "details": "second compound 0.1 µM; first compound 0.00316 µM; stronger effect = lower value", "in_short": "as §1", "units": {"viability, T/C": "%"}, "values": [
      {"smiles": "COc1cccc(OCCCN)c1-c1cc(Nc2cnc(C#N)cn2)n[nH]1", "note": "+ Cc1cccc(N(C)C(=O)C2C(O)CCN2c2nc(C)cc(C(F)(F)F)c2C#N)c1", "viability, T/C": 101}
    ]},
    {"test_system": "935938-334-R-J1-PDC complex spheroid viability", "experiment": "Anticancer human tumor 935938-334-R-J1-PDC cell line growth inhibition [POLQ];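 also: spheroids exposed to drugs for seven days before viability read; 100% = DMSO vehicle control wells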", "details": "second compound 0.1 µM; first compound 0.01 µM; stronger effect = lower value", "in_short": "as §1", "units": {"viability, T/C": "%"}, "values": [
      {"smiles": "COc1cccc(OCCCN)c1-c1cc(Nc2cnc(C#N)cn2)n[nH]1", "note": "+ Cc1cccc(N(C)C(=O)C2C(O)CCN2c2nc(C)cc(C(F)(F)F)c2C#N)c1", "viability, T/C": 75.2}
    ]},
    {"test_system": "935938-334-R-J1-PDC complex spheroid viability", "experiment": "Anticancer human tumor 935938-334-R-J1-PDC cell line growth inhibition [POLQ];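 also: spheroids exposed to drugs for seven days before viability read; 100% = DMSO vehicle control wells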", "details": "second compound 0.1 µM; first compound 0.0316 µM; stronger effect = lower value", "in_short": "as §1", "units": {"viability, T/C": "%"}, "values": [
      {"smiles": "O=C(Nc1ccc(O)c(NS(=O)(=O)c2ccc(F)cc2)c1)c1ccc(-c2ccccc2)cc1", "note": "+ COC1C(OC(N)=O)C(O)C(Oc2ccc3c(O)c(NC(=O)c4ccc(O)c(CC=C(C)C)c4)c(=O)oc3c2C)OC1(C)C", "viability, T/C": 115},
      {"smiles": "O=c1[nH]cc(F)c(=O)[nH]1", "note": "+ Cc1cccc(N(C)C(=O)C2C(O)CCN2c2nc(C)cc(C(F)(F)F)c2C#N)c1", "viability, T/C": 106},
      {"smiles": "CC1COCCN1c1cc(C2(S(C)(=N)=O)CC2)nc(-c2ccnc3[nH]ccc23)n1", "note": "(configuration not stated) + Nc1ccc(C#CCN(C(=O)Cc2ncc(C(F)(F)F)cc2C(F)(F)F)c2ccc(F)cc2)nn1", "viability, T/C": 104},
      {"smiles": "CCCS(=O)(=O)Nc1ccc(F)c(C(=O)c2c[nH]c3ncc(-c4ccc(Cl)cc4)cc23)c1F", "note": "+ Cc1cccc(N(C)C(=O)C2C(O)CCN2c2nc(C)cc(C(F)(F)F)c2C#N)c1", "viability, T/C": 114},
      {"smiles": "COc1ccc([C@@H](O)c2cc(-c3ncnc4cc(N5CCOCC5)ccc34)c(F)cc2Cl)nn1", "note": "+ Cc1cccc(N(C)C(=O)C2C(O)CCN2c2nc(C)cc(C(F)(F)F)c2C#N)c1", "viability, T/C": 75.3},
      {"smiles": "CC(C)n1c(=O)n(C)c2cnc3cc(F)c(-c4ccc(OCCCN5CCCCC5)nc4)cc3c21", "note": "+ Cc1cccc(N(C)C(=O)C2C(O)CCN2c2nc(C)cc(C(F)(F)F)c2C#N)c1", "viability, T/C": 85.9},
      {"smiles": "COc1cccc(OCCCN)c1-c1cc(Nc2cnc(C#N)cn2)n[nH]1", "note": "+ Cc1cccc(N(C)C(=O)C2C(O)CCN2c2nc(C)cc(C(F)(F)F)c2C#N)c1", "viability, T/C": 69.6}
    ]},
    {"test_system": "935938-334-R-J1-PDC complex spheroid viability", "experiment": "Anticancer human tumor 935938-334-R-J1-PDC cell line growth inhibition [POLQ]", "details": "second compound 0.1 µM; first compound 0.1 µM; stronger effect = lower value", "in_short": "as §1", "units": {"viability, T/C": "%"}, "values": [
      {"smiles": "O=C(Nc1ccc(O)c(NS(=O)(=O)c2ccc(F)cc2)c1)c1ccc(-c2ccccc2)cc1", "note": "+ COC1C(OC(N)=O)C(O)C(Oc2ccc3c(O)c(NC(=O)c4ccc(O)c(CC=C(C)C)c4)c(=O)oc3c2C)OC1(C)C", "viability, T/C": 97.3},
      {"smiles": "O=c1[nH]cc(F)c(=O)[nH]1", "note": "+ Cc1cccc(N(C)C(=O)C2C(O)CCN2c2nc(C)cc(C(F)(F)F)c2C#N)c1", "viability, T/C": 127},
      {"smiles": "CC1COCCN1c1cc(C2(S(C)(=N)=O)CC2)nc(-c2ccnc3[nH]ccc23)n1", "note": "(configuration not stated) + Nc1ccc(C#CCN(C(=O)Cc2ncc(C(F)(F)F)cc2C(F)(F)F)c2ccc(F)cc2)nn1", "viability, T/C": 117},
      {"smiles": "CCCS(=O)(=O)Nc1ccc(F)c(C(=O)c2c[nH]c3ncc(-c4ccc(Cl)cc4)cc23)c1F", "note": "+ Cc1cccc(N(C)C(=O)C2C(O)CCN2c2nc(C)cc(C(F)(F)F)c2C#N)c1", "viability, T/C": 119},
      {"smiles": "COc1ccc([C@@H](O)c2cc(-c3ncnc4cc(N5CCOCC5)ccc34)c(F)cc2Cl)nn1", "note": "+ Cc1cccc(N(C)C(=O)C2C(O)CCN2c2nc(C)cc(C(F)(F)F)c2C#N)c1", "viability, T/C": 98.1},
      {"smiles": "CC(C)n1c(=O)n(C)c2cnc3cc(F)c(-c4ccc(OCCCN5CCCCC5)nc4)cc3c21", "note": "+ Cc1cccc(N(C)C(=O)C2C(O)CCN2c2nc(C)cc(C(F)(F)F)c2C#N)c1", "viability, T/C": 84.7},
      {"smiles": "COc1cccc(OCCCN)c1-c1cc(Nc2cnc(C#N)cn2)n[nH]1", "note": "+ Cc1cccc(N(C)C(=O)C2C(O)CCN2c2nc(C)cc(C(F)(F)F)c2C#N)c1", "viability, T/C": 31}
    ]},
    {"test_system": "935938-334-R-J1-PDC complex spheroid viability", "experiment": "Anticancer human tumor 935938-334-R-J1-PDC cell line growth inhibition [POLQ]", "details": "second compound 0.1 µM; first compound 0.316 µM; stronger effect = lower value", "in_short": "as §1", "units": {"viability, T/C": "%"}, "values": [
      {"smiles": "O=C(Nc1ccc(O)c(NS(=O)(=O)c2ccc(F)cc2)c1)c1ccc(-c2ccccc2)cc1", "note": "+ COC1C(OC(N)=O)C(O)C(Oc2ccc3c(O)c(NC(=O)c4ccc(O)c(CC=C(C)C)c4)c(=O)oc3c2C)OC1(C)C", "viability, T/C": 86.5},
      {"smiles": "O=c1[nH]cc(F)c(=O)[nH]1", "note": "+ Cc1cccc(N(C)C(=O)C2C(O)CCN2c2nc(C)cc(C(F)(F)F)c2C#N)c1", "viability, T/C": 93},
      {"smiles": "CC1COCCN1c1cc(C2(S(C)(=N)=O)CC2)nc(-c2ccnc3[nH]ccc23)n1", "note": "(configuration not stated) + Nc1ccc(C#CCN(C(=O)Cc2ncc(C(F)(F)F)cc2C(F)(F)F)c2ccc(F)cc2)nn1", "viability, T/C": 91.8},
      {"smiles": "CCCS(=O)(=O)Nc1ccc(F)c(C(=O)c2c[nH]c3ncc(-c4ccc(Cl)cc4)cc23)c1F", "note": "+ Cc1cccc(N(C)C(=O)C2C(O)CCN2c2nc(C)cc(C(F)(F)F)c2C#N)c1", "viability, T/C": 166},
      {"smiles": "COc1ccc([C@@H](O)c2cc(-c3ncnc4cc(N5CCOCC5)ccc34)c(F)cc2Cl)nn1", "note": "+ Cc1cccc(N(C)C(=O)C2C(O)CCN2c2nc(C)cc(C(F)(F)F)c2C#N)c1", "viability, T/C": 69.6},
      {"smiles": "CC(C)n1c(=O)n(C)c2cnc3cc(F)c(-c4ccc(OCCCN5CCCCC5)nc4)cc3c21", "note": "+ Cc1cccc(N(C)C(=O)C2C(O)CCN2c2nc(C)cc(C(F)(F)F)c2C#N)c1", "viability, T/C": 82.8},
      {"smiles": "COc1cccc(OCCCN)c1-c1cc(Nc2cnc(C#N)cn2)n[nH]1", "note": "+ Cc1cccc(N(C)C(=O)C2C(O)CCN2c2nc(C)cc(C(F)(F)F)c2C#N)c1", "viability, T/C": 9.36}
    ]},
    {"test_system": "935938-334-R-J1-PDC complex spheroid viability", "experiment": "Anticancer human tumor 935938-334-R-J1-PDC cell line growth inhibition [POLQ]", "details": "second compound 0.1 µM; first compound 1 µM; stronger effect = lower value", "in_short": "as §1", "units": {"viability, T/C": "%"}, "values": [
      {"smiles": "O=C(Nc1ccc(O)c(NS(=O)(=O)c2ccc(F)cc2)c1)c1ccc(-c2ccccc2)cc1", "note": "+ COC1C(OC(N)=O)C(O)C(Oc2ccc3c(O)c(NC(=O)c4ccc(O)c(CC=C(C)C)c4)c(=O)oc3c2C)OC1(C)C", "viability, T/C": 97},
      {"smiles": "O=c1[nH]cc(F)c(=O)[nH]1", "note": "+ Cc1cccc(N(C)C(=O)C2C(O)CCN2c2nc(C)cc(C(F)(F)F)c2C#N)c1", "viability, T/C": 76.7},
      {"smiles": "CC1COCCN1c1cc(C2(S(C)(=N)=O)CC2)nc(-c2ccnc3[nH]ccc23)n1", "note": "(configuration not stated) + Nc1ccc(C#CCN(C(=O)Cc2ncc(C(F)(F)F)cc2C(F)(F)F)c2ccc(F)cc2)nn1", "viability, T/C": 91}
    ]}
  ]
}
